From US4686215A, “Pharmaceutical composition and method for treating tumors susceptible to 2-carbamoylaziridine” (priority 1976, dated 1987)

Assays:
[1] = test system: carcinosarcoma DS; settings: known drugs, prior art; cited from earlier work
[2] = prior art compound; cited from earlier work
[3] = test system: SA-45; test: action in rats with SA-45 at late stages of tumor development (17 days after implantation); format: in vivo, rat; settings: group II; 10 animals; i.v. 1500 mg/kg, 17 days after tumor implantation
Method: (§1) Non-linear male rats with the starting weight 120-150 g were used in the experiments described hereinunder in Examples 1-4. All the animals were administered intravenously a single dose of the pharmaceutical composition in the form of the concentrated solution (10-30%) of the active principle in distilled water at a rate of 1500 mg/kg. The animals were decapitated on the 20th say from the day of the administration. All the animals received the usual laboratory ration.
The action of the pharmaceutical composition consisting of 30% solution of the active principle above formula where R is NH2, in distilled water was tested in rats with SA-45 at late stages of tumor development. The composition was administered 17 days after tumor implantation. The results of the experiment are presented in Table 4 where I--control animals, II--rats which were administered the pharmaceutical composition.

[4] = toxicity (LD50); format: in vivo; settings: compared with prior art
[5] = test system: implanted RMCC-1; test: action in rats with implanted RMCC-1 at late stage of tumor development (15 days after implantation); format: in vivo, rat; settings: group II, i.v. 1500 mg/kg
Method: as §1
The action of the same pharmaceutical composition as in Example 1 was tested in rats with implanted RMCC-1 at late stage of tumor development. The pharmaceutical composition was administered 15 days after tumor implanatation, the average weight of the tumor being 35 g. The groups of the animals are designated as in Example 1. None of the controls survived till the day of decapitation (the 20th day after the administration of the pharmaceutical composition to group II).

[6] = test system: implanted SA-45; test: action in rats with implanted SA-45 at early stages of tumor development (48 hours after implantation); format: in vivo, rat; settings: group II; 10 animals; i.v. 1500 mg/kg, 48 hours after tumor implantation
Method: as §1
The action of the same pharmaceutical composition as in Example 1 was tested in rats with implanted SA-45 at early stages of tumor development. The pharmaceutical composition was administered 48 hours after tumor implantation. The results of the experiment are presented in Table 3, where I--control group, II--rats which were administered pharmaceutical composition.

[7] = test system: implanted mammary gland cancer (RMGC-1); test: action on tumor growth in rats with implanted mammary gland cancer RMGC-1, early stage (24 hours after implantation); format: in vivo, rat; settings: 10 animals
Method: as §1
The action of the pharmaceutical composition consisting of 30% solution of the active principle of the above formula where R is NHNH2, in distilled water on tumor growth was tested in rats with implanted mammary gland cancer (RMGC-1). The results of the experiments are presented in Table 1, where I--control animals, II--rats which were administered the pharmaceutical composition, III--rats which were administered the same composition against the background of 90 minutes' hyperglycemia. The animals of groups II and III were administered the composition 24 hours after tumor implantation.

[8] = 6 animals, 15 days after tumor implantation, average tumor weight 35 g
[9] = group II, single i.v. dose 1500 mg/kg, 24 hours after tumor implantation, 20th day
[10] = group III, against the background of 90 minutes' hyperglycemia, i.v. 1500 mg/kg, 24 hours after implantation

Structure (SMILES): N#CC1CN1C(N)=O (centres unmarked) [1-carbamoyl-2-cyano-aziridine]
- cure of rats with carcinosarcoma DS [1]: 47.4%
- LD50 [2]: 1 250 mg/kg

Structure (SMILES): NC(=O)C1CN1 (centres unmarked) [2-carbamoylaziridine]
- Complete disappearance of the tumor (animals) [3]: 6
- No effect (animals) [3]: 2
- Partial disappearance of the tumor (animals) [3]: 2
- therapeutic index [4]: considerably higher

Structure (SMILES): NNC(=O)C1CN1 (centres unmarked) [active principle where R is NHNH2]
- Life time increased by ([5]; animals with partial disappearance of the tumor, 15 days after implantation): 50%
- Complete disappearance of the tumor (animals) [5, 8]: 3
- Partial disappearance of the tumor (animals) [5, 8]: 3
- Complete disappearance of the tumor (animals) [6]: 3
- No effect (animals) [6]: 4
- Partial disappearance of the tumor (animals) [6]: 3
- Complete disappearance of the tumor (animals) [7, 9]: 8
- No effect (animals) [7, 9]: 2
- Complete disappearance of the tumor (animals) [7, 10]: 7
- No effect (animals) [7, 10]: 1
- Partial disappearance of the tumor (animals) [7, 10]: 2
